According to US10399937B2, “Ionizable cationic lipid for RNA delivery” (Arcturus Therapeutics, Inc., priority 2013, dated 2019):

Experiments:
[1] = pKa of the cationic lipid (Table 1); type: physicochemical
[2] = tested on: Factor VII; test: In vivo mouse Factor VII silencing (siRNA in liposome formulations with the cationic lipid); design: species or system C57BL/6 mice; conditions: C57BL6 mice; for ability to knockdown Factor VII in mouse plasma (FIGS. 1 and 2): 0.3 mg/kg, compared to controls (MC3, NC1, ATX-547, ATX-003); for Factor VII knockdown in mouse plasma (FIGS. 3 and 4): second series with MC3, NC1, ATX-547, ATX-004, ATX-006, ATX-010, ATX-001
Method: Using a liver-directed in vivo screen of the liposome libraries, a series of compounds were tested that facilitate high levels of siRNA mediated gene silencing in hepatocytes, the cells comprising the liver parenchyma. Factor VII, a blood clotting factor, is a suitable target gene for assaying functional siRNA delivery to liver. Because this factor is produced specifically in hepatocytes, gene silencing indicates successful delivery to parenchyma, as opposed to delivery to the cells of the reticulo-endothelial system (e.g., Kupffer cells). Furthermore, Factor VII is a secreted protein that can be readily measured in serum, obviating the need to euthanize animals. Silencing at the mRNA level can be readily determined by measuring levels of protein. This is because the protein's short half-life (2-5 hour). C57BL/6 mice (Charles River Labs) received either saline or siRNA in liposome formulations via tail vein injection at a volume of 0.006 ml/g. At 48 h after administration, animals were anesthetized by isofluorane inhalation and blood was collected into serum separator tubes by retroorbital bleed. Serum levels of Factor VII protein were determined in samples using a chromogenic assay (Biophen FVII, Aniara Corporation) according to manufacturers' protocols. A standard curve was generated using serum collected from saline-treated animals.
Compositions with siRNA directed to […] were formulated with ATX-001, ATX-002, ATX-003, and ATX-547, and comparator samples NC1 and MC3 (Alnylam). These were injected into animals at 0.3 mg/kg and at 1 mg/kg. The siRNA encapsulated by MC3 (0.3 mg/kg), NC1 (0.3 mg/kg), ATX-547 (0.3 mg/kg), ATX-001 (0.3 and 1.0 mg/kg), ATX-002 (0.3 and 1.0 mg/kg), and ATX-003 (0.3 and 1.0 mg/kg) was measured for the ability to knockdown Factor VII in mouse plasma following administration of the siRNA formulation to C57BL6 mice.
The siRNA encapsulated MC3 (0.3 and 1.5 mg/kg), NC1 (0.3 mg/kg), ATX-547 (0.1 and 0.3 mg/kg), ATX-004 (0.3), ATX-006 (0.3 and 1.0 mg/kg), ATX-010 (0.3 mg/kg), and ATX-001 (0.3 and 1.5 mg/kg), was measured for Factor VII knockdown in mouse plasma following administration of the siRNA formulation to C57BL6 mice. […] The knockdown activity of the exemplary compounds is shown for 0.3 mg/kg or at 0.05 mg/kg for ATX-018, ATX-019, and ATX-020 (Table 1).

SMILES | pKa [1] | ability to knockdown Factor VII in mouse plasma (FIGS. 1 and 2) [2] | Factor VII knockdown in mouse plasma (FIGS. 3 and 4) [2]
CCCCCC/C=C\COC(=O)CCCCCCCN(CCCCCCCC(=O)OC/C=C\CCCCCC)C(=O)SCCN(C)CC [ATX-009] | 8.8 |  | 
CCCCCC/C=C\COC(=O)CCCCCCCN(CCCCCCCC(=O)OC/C=C\CCCCCC)C(=O)SCCCN(C)C [ATX-003] | 9.3 |  | 
CCCCCC/C=C\COC(=O)CCCCCCCN(CCCCCCCC(=O)OC/C=C\CCCCCC)C(=O)CSCCCN(CC)CC [ATX-008] | 10.3 |  | 
CCCCCC/C=C\COC(=O)CCCCCCCN(CCCCCCCC(=O)OC/C=C\CCCCCC)C(=O)CSCCN(C)CC [ATX-005] | 9 |  | 
CCCCCC/C=C\COC(=O)CCCCCCCN(CCCCCCCC(=O)OC/C=C\CCCCCC)C(=O)SCCCN(CC)CC [ATX-012] | 10.2 |  | 
CCCCCC/C=C\COC(=O)CCCCCCCN(CCCCCCCC(=O)OC/C=C\CCCCCC)C(=O)SCCCN(C)CC [ATX-011] | 9.4 |  | 
CCCCCC/C=C\COC(=O)CCCCCCCN(CCCCCCCC(=O)OC/C=C\CCCCCC)C(=O)CSCCN(CC)CC [ATX-006] | 9.8 |  | 
CCCCCC/C=C\COC(=O)CCCCCCCN(CCCCCCCC(=O)OC/C=C\CCCCCC)C(=O)CSCCCN(C)CC [ATX-007] | 9.5 |  | 
CCCCCC/C=C\COC(=O)CCCCCCCN(CCCCCCCC(=O)OC/C=C\CCCCCC)C(=O)SCCN(C)C [ATX-002] | 8.7 | most effective | 
CCCCCC/C=C\COC(=O)CCCCCCCN(CCCCCCCC(=O)OC/C=C\CCCCCC)C(=O)CSCCCN(C)C [ATX-004] | 9.4 |  | 
CCCCCC/C=C\COC(=O)CCCCCCCN(CCCCCCCC(=O)OC/C=C\CCCCCC)C(=O)CSCCN(C)C [ATX-001] | 8.9 | most effective | most effective
CCCCCC/C=C\COC(=O)CCCCCCCN(CCCCCCCC(=O)OC/C=C\CCCCCC)C(=O)SCCN(CC)CC [ATX-010] | 9.6 |  | most effective
